Experimental findings from patent publication US11999727B2 (Tango Therapeutics, Inc., priority 2020, dated 2024) are described below.

The target in assay [1] is T1, PRMT5 (Homo sapiens, UniProt O14744).
T1 construct: purchased Viva (custom protein)
The experiment in a line: PRMT5 biochemical IC50 assay with SAM as cofactor. As to conditions: PRMT5, SAM as cofactor; read-out: SAM IC50.

The target of assay [2] is T1, PRMT5. The experiment in a line: PRMT5 biochemical IC50 assay with no cofactor. As to conditions: PRMT5, no cofactor; read-out: No Cofactor/ rel IC50. The source says:
Table 1 indicates IC50 values (μM) against PRMT5 for exemplary compounds in the presence of SAM as cofactor, with no cofactor, and with MTA as cofactor, respectively (columns 4-6). […] Ki values can be calculated from the IC50 values as described in the Examples section. As detailed in the Examples section, for the assay performed in the presence of SAM, IC50=Ki×1.5 (Ki=IC50/1.5).

The target of assay [3] is T1, PRMT5. In words: PRMT5 biochemical IC50 assay with MTA as cofactor. As to conditions: PRMT5, MTA as cofactor; read-out: MTA IC50.
The test system of assay [4] is HAP1 MTAP-intact cell line. In words: SDMA in-cell western assay, HAP1 MTAP-intact. Format: cell-based. The settings on record: Homo sapiens, HAP1, SDMA in-cell western, HAP1 MTAP-intact; read-out: MTAP HAP1 intact IC50. An outline of the steps: (§1)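 Isogenic HAP1 pair: the MTAP-intact line expresses endogenous MTAP, and the deleted line is MTAP-null. Symmetric dimethylarginine was detected by in-cell western and IC50 values derived for each line.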

The test system of assay [5] is HAP1 MTAP-deleted cell line. In words: SDMA in-cell western assay, HAP1 MTAP-deleted. It counts as cell-based. The settings on record: for IC50: Homo sapiens, HAP1, SDMA in-cell western, HAP1 MTAP-deleted, read-out: HAP 1 MTAP deleted IC50; for MTAP intact/deleted ratio: IC50 ratio HAP1 MTAP-intact / HAP1 MTAP-deleted, SDMA in-cell western. In short, it runs like this: as §1

For assay [6], the system named is HAP1 MTAP-deleted cell line. The experiment in a line: Viability assay, MTAP-deleted cell line. Format: cell-based. The settings on record: Homo sapiens, HAP1, viability, HAP1 MTAP-deleted cell line; read-out: HAP1 MTAP deleted viability. The source says:
Table 1 additionally indicates IC50 values in a viability assay for the MTAP-deleted cell line (column 10), indicating the effect of treatment with compound on cell survival.

T1 sequence (O14744 whole entry): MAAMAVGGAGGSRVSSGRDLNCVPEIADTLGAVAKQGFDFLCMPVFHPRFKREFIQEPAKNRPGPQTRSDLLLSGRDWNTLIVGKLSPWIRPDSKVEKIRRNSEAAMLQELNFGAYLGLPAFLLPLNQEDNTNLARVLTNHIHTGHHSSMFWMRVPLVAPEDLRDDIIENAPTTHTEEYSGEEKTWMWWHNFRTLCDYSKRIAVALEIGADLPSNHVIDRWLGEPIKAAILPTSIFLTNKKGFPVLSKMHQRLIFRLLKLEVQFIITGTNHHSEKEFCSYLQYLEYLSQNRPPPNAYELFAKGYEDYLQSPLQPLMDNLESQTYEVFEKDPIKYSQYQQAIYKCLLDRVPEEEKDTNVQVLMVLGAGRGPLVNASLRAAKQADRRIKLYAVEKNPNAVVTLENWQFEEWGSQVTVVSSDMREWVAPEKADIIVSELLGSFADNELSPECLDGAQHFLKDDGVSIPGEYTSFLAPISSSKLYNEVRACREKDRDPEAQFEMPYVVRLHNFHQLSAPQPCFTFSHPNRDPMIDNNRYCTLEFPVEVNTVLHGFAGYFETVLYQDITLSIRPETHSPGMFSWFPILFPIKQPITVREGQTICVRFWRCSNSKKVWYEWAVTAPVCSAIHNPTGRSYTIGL
T1 sequence (Q9BQA1 whole entry partner): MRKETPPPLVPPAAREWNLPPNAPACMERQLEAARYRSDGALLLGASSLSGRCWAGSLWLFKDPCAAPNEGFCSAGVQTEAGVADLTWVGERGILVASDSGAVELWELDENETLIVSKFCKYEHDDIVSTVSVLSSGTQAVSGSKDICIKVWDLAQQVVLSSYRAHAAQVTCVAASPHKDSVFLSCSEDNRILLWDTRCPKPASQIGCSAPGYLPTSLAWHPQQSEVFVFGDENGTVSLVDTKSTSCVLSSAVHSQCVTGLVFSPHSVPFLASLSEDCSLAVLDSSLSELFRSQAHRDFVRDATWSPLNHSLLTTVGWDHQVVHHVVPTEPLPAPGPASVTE

As for `CCc1cc(NC(=O)C(=O)N2C[C@@H](C)CC[C@@H]2c2ccc3c(c2)C(=O)N(C2CCN(C)CC2)C3)cnc1N` (racemic) [Compound 1272, N-(6-amino-5-ethyl-3-pyridyl)-2-oxo-2-[rac-(2R,5S)-5-methyl-2-[2-(1-methyl-4-piperidyl)-3-oxo-isoindolin-5-yl]-1-piperidyl]acetamide], the IC50 was 50 to 500 nM in assay [1]; < 50 nM in assay [2]; < 50 nM in assay [3]; 100 to 1000 nM in assay [4]; < 100 nM in assay [5]; < 1000 nM in assay [6]. In assay [5], the “MTAP intact/deleted ratio” value is recorded as “A (an IC50 ratio greater than or equal to 10 fold)”.
Consider `COc1ncc(NC(=O)C(=O)N2C[C@@H](C)CC[C@@H]2c2ccc3sc([C@@H]4CCN(C)C4)nc3c2)cc1C(N)=O` (racemic) [Compound 1278, 2-methoxy-5-[[2-oxo-2-[rac-(2R,5S)-5-methyl-2-[2-[rac-(3R)-1-methylpyrrolidin-3-yl]-1,3-benzothiazol-5-yl]-1-piperidyl]acetyl]amino]pyridine-3-carboxamide], for which the IC50 in assay [1] was < 50 nM; in assay [2] it was < 50 nM; in assay [3], < 50 nM; in assay [4], < 100 nM; in assay [5] it was < 100 nM; in assay [6], < 1000 nM. In assay [5], the “MTAP intact/deleted ratio” value is given as “A (an IC50 ratio greater than or equal to 10 fold)”.
On to `COc1ncc(NC(=O)C(=O)N2C[C@@H](C)CC[C@@H]2c2ccc3sc(CCN(C)C)nc3c2)cc1C(N)=O` (racemic) [Compound 1281, 5-[[2-[(2R,5S)-2-[2-[2-(dimethylamino)ethyl]-1,3-benzothiazol-5-yl]-5-methyl-1-piperidyl]-2-oxo-acetyl]amino]-2-methoxy-pyridine-3-carboxamide], for which the IC50 in assay [1] was 50 to 500 nM; in assay [2] it was 50 to 500 nM; in assay [3], < 50 nM; in assay [4] it was 100 to 1000 nM; in assay [5], < 100 nM; in assay [6], < 1000 nM. Further, the “MTAP intact/deleted ratio” value in assay [5] is “A (an IC50 ratio greater than or equal to 10 fold)”.
In the case of `CCc1cc(NC(=O)C(=O)N2C[C@@H](C)CC[C@@H]2c2ccc(N3C[C@H]4CN(C)CC[C@H]4C3)cc2)cnc1N` (racemic) [Compound 1287, N-(6-amino-5-ethyl-3-pyridyl)-2-oxo-2-[rac-(2R,5S)-5-methyl-2-[4-[rac-(3aR,7aR)-5-methyl-3,3a,4,6,7,7a-hexahydro-1H-pyrrolo[3,4-c]pyridin-2-yl]phenyl]-1-piperidyl]acetamide], the IC50 in assay [1] was 50 to 500 nM; in assay [2], < 50 nM; in assay [3], < 50 nM; in assay [4], 100 to 1000 nM; in assay [5], < 100 nM; in assay [6], < 1000 nM. Besides, in assay [5], the “MTAP intact/deleted ratio” value is “A (an IC50 ratio greater than or equal to 10 fold)”.
On to `CCc1cc(NC(=O)C(=O)N2C[C@@H](C)CC[C@@H]2c2ccc3cn(C4CC(C)(C)N(C)C(C)(C)C4)nc3c2)cnc1N` (racemic) [Compound 1295, N-(6-Amino-5-ethyl-3-pyridyl)-2-oxo-2-[rac-(2R,5S)-5-methyl-2-[2-(1,2,2,6,6-pentamethyl-4-piperidyl)indazol-6-yl]-1-piperidyl]acetamide], for which the IC50 in assay [1] was < 50 nM; in assay [2], < 50 nM; in assay [3], < 50 nM; in assay [4], < 100 nM; in assay [5] it was < 100 nM; in assay [6], < 1000 nM. Further, the “MTAP intact/deleted ratio” value in assay [5] is “A (an IC50 ratio greater than or equal to 10 fold)”.
As for `COc1ncc(NC(=O)C(=O)N2C[C@@H](C)CC[C@@H]2c2ccc3cn(C4CCN(C)CC4)nc3c2)cc1C(N)=O` (racemic) [Compound 1299, 2-Methoxy-5-[[2-oxo-2-[rac-(2R,5S)-5-methyl-2-[2-(1-methyl-4-piperidyl)indazol-6-yl]-1-piperidyl]acetyl]amino]pyridine-3-carboxamide], the IC50 in assay [1] is < 50 nM; in assay [2], < 50 nM; in assay [3], < 50 nM; in assay [4], < 100 nM; in assay [5], < 100 nM; in assay [6], < 1000 nM. In addition, in assay [5], the “MTAP intact/deleted ratio” value is recorded as “B (an IC50 ratio greater than or equal to 3 fold but lower than 10 fold)”.
For the compound `CCc1cc(NC(=O)C(=O)N2C[C@@H](C)CC[C@@H]2c2ccc(OCCN(C)C)c(Cl)c2)cnc1N` (racemic) [Compound 1305, N-(6-Amino-5-ethyl-3-pyridyl)-2-oxo-2-[rac-(2R,5S)-2-[3-chloro-4-[2-(dimethylamino)ethoxy]phenyl]-5-methyl-1-piperidyl]acetamide], the IC50 in assay [1] was 50 to 500 nM; in assay [2], < 50 nM; in assay [3], < 50 nM; in assay [4] it was < 100 nM; in assay [5], < 100 nM; in assay [6] it was < 1000 nM. Also, the “MTAP intact/deleted ratio” value in assay [5] is “A (an IC50 ratio greater than or equal to 10 fold)”.
For `COc1ncc(NC(=O)C(=O)N2C[C@@H](C)CC[C@@H]2c2ccc3nn([C@H]4CCN(C)C4)cc3c2)cc1C(N)=O` (racemic) [Compound 1318, 2-Methoxy-5-[[2-oxo-2-[rac-(2R,5S)-5-methyl-2-[2-[rac-(3S)-1-methylpyrrolidin-3-yl]indazol-5-yl]-1-piperidyl]acetyl]amino]pyridine-3-carboxamide], the IC50 is 50 to 500 nM in assay [1]; < 50 nM in assay [2]; < 50 nM in assay [3]; 100 to 1000 nM in assay [4]; < 100 nM in assay [5]; < 1000 nM in assay [6]. For the same compound, the “MTAP intact/deleted ratio” value in assay [5] was “A (an IC50 ratio greater than or equal to 10 fold)”.
`CCc1cc(NC(=O)C(=O)N2C[C@@H](C)CC[C@@H]2c2ccc(N3CCOC4(CN(C)C4)C3)cc2)cnc1N` (racemic) [Compound 1329, rac-N-(6-Amino-5-ethyl-3-pyridyl)-2-[(2R,5S)-5-methyl-2-[4-(2-methyl-5-oxa-2,8-diazaspiro[3.5]nonan-8-yl)phenyl]-1-piperidyl]-2-oxo-acetamide]: the IC50 is 50 to 500 nM in assay [1]; 50 to 500 nM in assay [2]; 50 to 500 nM in assay [3]; > 1000 nM in assay [4]; < 100 nM in assay [5]; < 1000 nM in assay [6].
Regarding `CCc1cc(NC(=O)C(=O)N2C[C@@H](C)[C@H](OC(C)C)C[C@@H]2c2ccc3scnc3c2)cnc1N` (racemic) [Compound 1343, N-(6-Amino-5-ethyl-3-pyridyl)-2-[(2S,4S,5S)-2-(1,3-benzothiazol-5-yl)-4-isopropoxy-5-methyl-1-piperidyl]-2-oxo-acetamide], the IC50 in assay [1] was 50 to 500 nM; in assay [2], 50 to 500 nM; in assay [3], 50 to 500 nM; in assay [4] it was 100 to 1000 nM; in assay [5], < 100 nM; in assay [6], < 1000 nM. Also, the “MTAP intact/deleted ratio” value in assay [5] is recorded as “A (an IC50 ratio greater than or equal to 10 fold)”.
Consider `C[C@@H]1CC[C@@H](c2ccc3sc(CCN(C)C)nc3c2)N(C(=O)C(=O)Nc2cncc(C(N)=O)c2)C1` (racemic) [Compound 1355, 5-(2-(2-(2-(2-(dimethylamino)ethyl)benzo[d]thiazol-5-yl)-5-methylpiperidin-1-yl)-2-oxoacetamido)nicotinamide], for which the IC50 is 50 to 500 nM in assay [1]; 50 to 500 nM in assay [2]; < 50 nM in assay [3]; 100 to 1000 nM in assay [4]; < 100 nM in assay [5]; < 1000 nM in assay [6]. Also, the “MTAP intact/deleted ratio” value in assay [5] is given as “A (an IC50 ratio greater than or equal to 10 fold)”.
`CCc1cc(NC(=O)C(=O)N2CC(C)CCC2c2ccc3sc(C4CCN(C)CC4C)nc3c2)cnc1N` (racemic) [Compound 1373, N-(6-amino-5-ethyl-3-pyridyl)-2-oxo-2-[rac-(2R,5S)-5-methyl-2-[2-[rac-(3S,4S)-1,3-dimethyl-4-piperidyl]-1,3-benzothiazol-5-yl]-1-piperidyl]acetamide]: the IC50 in assay [1] is < 50 nM; in assay [2], < 50 nM; in assay [3] it was < 50 nM; in assay [4], < 100 nM; in assay [5] it was < 100 nM; in assay [6], < 1000 nM. The “MTAP intact/deleted ratio” value in assay [5] was “B (an IC50 ratio greater than or equal to 3 fold but lower than 10 fold)”.
Regarding `CCc1cc(NC(=O)C(=O)N2C[C@@H](C)CC[C@@H]2c2ccc(N3CCN(CC)CC3)c(C)c2)cnc1N` (racemic) [Compound 1376, N-(6-Amino-5-ethyl-3-pyridyl)-2-oxo-2-[rac-(2R,5S)-2-[4-(4-ethylpiperazin-1-yl)-3-methyl-phenyl]-5-methyl-1-piperidyl]acetamide], the IC50 is 50 to 500 nM in assay [1]; < 50 nM in assay [2]; < 50 nM in assay [3]; 100 to 1000 nM in assay [4]; < 100 nM in assay [5]; < 1000 nM in assay [6]. Moreover, the “MTAP intact/deleted ratio” value in assay [5] is on record as “A (an IC50 ratio greater than or equal to 10 fold)”.
